In PubChem BioAssay (NCI):
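Step 1: Grow cells in 96-well plates. Step 2: Expose to compound for 48 hours at 5 concentrations. Step 3: Interpolate endpoints linearly; if unreached, use highest concentration. GI50 = concentration required for 50% inhibition of growth. The concentration for full growth arrest is given as TGI.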

What was measured:
Experiment in all cases: DTP human tumour cell line panel, 48 h; in the data active = GI50 below about 0.43 µM; inactive = the rest
[1] = test system: 786-0 renal
[2] = test system: A498 renal
[3] = test system: A549 NSCLC
[4] = test system: ACHN renal
[5] = test system: BT-549 breast
[6] = test system: CAKI-1 renal
[7] = test system: COLO 205 colon
[8] = test system: DU-145 prostate
[9] = test system: HCC-2998 colon
[10] = test system: HCT-116 colon
[11] = test system: HCT-15 colon
[12] = test system: HL-60(TB) leukemia
[13] = test system: HOP-62 NSCLC
[14] = test system: HOP-92 NSCLC
[15] = test system: HS 578T breast
[16] = test system: HT29 colon
[17] = test system: IGROV1 ovarian
[18] = test system: K-562 leukemia
[19] = test system: KM12 colon
[20] = test system: LOX IMVI melanoma
[21] = test system: M14 melanoma
[22] = test system: MALME-3M melanoma
[23] = test system: MCF7 breast
[24] = test system: MDA-MB-231 breast
[25] = test system: MDA-MB-435
[26] = test system: MOLT-4 leukemia
[27] = test system: NCI-H460 lung
[28] = test system: NCI-H522 lung
[29] = test system: NCI/ADR-RES ovarian
[30] = test system: OVCAR-3 ovarian
[31] = test system: OVCAR-4 ovarian
[32] = test system: OVCAR-5 ovarian
[33] = test system: OVCAR-8 ovarian
[34] = test system: RPMI-8226 leukemia
[35] = test system: RXF 393 renal
[36] = test system: SF-268 CNS
[37] = test system: SF-295 CNS
[38] = test system: SF-539 CNS
[39] = test system: SK-MEL-2 melanoma
[40] = test system: SK-MEL-28 melanoma
[41] = test system: SK-MEL-5 melanoma
[42] = test system: SK-OV-3 ovarian
[43] = test system: SN12C renal
[44] = test system: SNB-75 CNS
[45] = test system: SW-620 colon
[46] = test system: T-47D breast
[47] = test system: TK-10 renal
[48] = test system: U251 CNS
[49] = test system: UACC-257 melanoma
[50] = test system: UACC-62 melanoma
[51] = test system: UO-31 renal
[52] = test system: CCRF-CEM leukemia
[53] = test system: EKVX NSCLC
[54] = test system: NCI-H226 lung
[55] = test system: NCI-H23 lung
[56] = test system: PC-3 prostate
[57] = test system: SNB-19 CNS

Clc1ccc(-c2cc(-c3ccccc3)nc(N3CCN(CCCNc4ccnc5cc(Cl)ccc45)CC3)n2)cc1
3.19 µM: TGI [20] | TGI [24]
3.38 µM: TGI [46]
4.41 µM: TGI [34]
3.13 µM: TGI [6]
2.9 µM: TGI [51]
2.93 µM: TGI [33]
2.31 µM: TGI [18]
3.7 µM: TGI [7]
3.39 µM: TGI [39]
2.85 µM: TGI [44]
3.26 µM: TGI [47]
3.2 µM: TGI [19]
3.16 µM: TGI [25]
3.81 µM: TGI [23]
1.76 µM: TGI [16]
3.14 µM: TGI [40]
4.35 µM: TGI [26]
2.48 µM: TGI [11]
2.58 µM: TGI [35]
2.89 µM: TGI [17]
3.72 µM: TGI [37]
2.96 µM: TGI [4]
inactive: GI50 [1] 1.47 µM | GI50 [2] 1.48 µM | GI50 [3] 1.77 µM | GI50 [4] 1.61 µM | GI50 [5] 1.68 µM | GI50 [6] 1.66 µM | GI50 [7] 1.87 µM | GI50 [8] 1.52 µM | GI50 [9] 1.56 µM | GI50 [10] 0.934 µM | GI50 [11] 0.779 µM | GI50 [12] 1 µM | GI50 [13] 1.2 µM | GI50 [14] 1.21 µM | GI50 [15] 1.86 µM | GI50 [16] 0.464 µM | GI50 [17] 1.45 µM | GI50 [18] 0.461 µM | GI50 [19] 1.68 µM | GI50 [20] 1.75 µM | GI50 [21] 1.87 µM | GI50 [22] 1.81 µM | GI50 [23] 1.63 µM | GI50 [24] 1.67 µM | GI50 [25] 1.73 µM | GI50 [26] 1.22 µM | GI50 [27] 1.56 µM | GI50 [28] 1.78 µM | GI50 [29] 1.75 µM | GI50 [30] 1.55 µM | GI50 [31] 1.16 µM | GI50 [32] 1.66 µM | GI50 [33] 1.15 µM | GI50 [34] 1.74 µM | GI50 [35] 1.25 µM | GI50 [36] 1.73 µM | GI50 [37] 1.86 µM | GI50 [38] 1.79 µM | GI50 [39] 1.82 µM | GI50 [40] 1.72 µM | GI50 [41] 1.67 µM | GI50 [42] 1.74 µM | GI50 [43] 1.42 µM | GI50 [44] 1.49 µM | GI50 [45] 1.42 µM | GI50 [46] 1.14 µM | GI50 [47] 1.75 µM | GI50 [48] 1.29 µM | GI50 [49] 1.93 µM | GI50 [50] 1.79 µM | GI50 [51] 1.55 µM
2.83 µM: TGI [12]
3.54 µM: TGI [28]
3.08 µM: TGI [32]
3.64 µM: TGI [36]
3.75 µM: TGI [3]
2.63 µM: TGI [48]
2.84 µM: TGI [1] | TGI [43]
2.81 µM: TGI [2]
3.06 µM: TGI [41] | TGI [45]
4.38 µM: TGI [15]
3.1 µM: TGI [27]
2.78 µM: TGI [13]
2.98 µM: TGI [30]
3.89 µM: TGI [49]
3.25 µM: TGI [38] | TGI [50]
2.22 µM: TGI [10]
3.53 µM: TGI [21] | TGI [29]
3.02 µM: TGI [9]
2.61 µM: TGI [31]
3.35 µM: TGI [22]
2.94 µM: TGI [8]
2.6 µM: TGI [14]
3.23 µM: TGI [5]
3.17 µM: TGI [42]

CC(C)C[C@H](CC(=O)O)C(=O)N[C@@H](Cc1c[nH]c2ccccc12)C(=O)N[C@@H](C)c1ccccc1
inactive: GI50 [1] > 25 µM | GI50 [2] > 25 µM | GI50 [3] > 25 µM | GI50 [4] > 25 µM | GI50 [5] > 25 µM | GI50 [6] > 25 µM | GI50 [52] > 25 µM | GI50 [7] > 25 µM | GI50 [8] > 25 µM | GI50 [53] > 25 µM | GI50 [9] > 25 µM | GI50 [10] > 25 µM | GI50 [11] > 25 µM | GI50 [13] > 25 µM | GI50 [15] > 25 µM | GI50 [16] > 25 µM | GI50 [17] > 25 µM | GI50 [18] > 25 µM | GI50 [19] > 25 µM | GI50 [20] > 25 µM | GI50 [21] > 25 µM | GI50 [22] > 25 µM | GI50 [23] > 25 µM | GI50 [24] > 25 µM | GI50 [25] > 25 µM | GI50 [26] > 25 µM | GI50 [54] > 25 µM | GI50 [55] > 25 µM | GI50 [27] > 25 µM | GI50 [28] > 25 µM | GI50 [29] > 25 µM | GI50 [30] > 25 µM | GI50 [31] > 25 µM | GI50 [32] > 25 µM | GI50 [33] > 25 µM | GI50 [56] > 25 µM | GI50 [35] > 25 µM | GI50 [36] > 25 µM | GI50 [37] > 25 µM | GI50 [38] > 25 µM | GI50 [39] > 25 µM | GI50 [40] > 25 µM | GI50 [41] > 25 µM | GI50 [42] > 25 µM | GI50 [43] > 25 µM | GI50 [57] > 25 µM | GI50 [44] > 25 µM | GI50 [45] > 25 µM | GI50 [46] > 25 µM | GI50 [47] > 25 µM | GI50 [48] > 25 µM | GI50 [49] > 25 µM | GI50 [50] > 25 µM | GI50 [51] > 25 µM
> 25 µM: TGI [1] | TGI [2] | TGI [3] | TGI [4] | TGI [5] | TGI [6] | TGI [52] | TGI [7] | TGI [8] | TGI [53] | TGI [9] | TGI [10] | TGI [11] | TGI [13] | TGI [15] | TGI [16] | TGI [17] | TGI [18] | TGI [19] | TGI [20] | TGI [21] | TGI [22] | TGI [23] | TGI [24] | TGI [25] | TGI [26] | TGI [54] | TGI [55] | TGI [27] | TGI [28] | TGI [29] | TGI [30] | TGI [31] | TGI [32] | TGI [33] | TGI [56] | TGI [35] | TGI [36] | TGI [37] | TGI [38] | TGI [39] | TGI [40] | TGI [41] | TGI [42] | TGI [43] | TGI [57] | TGI [44] | TGI [45] | TGI [46] | TGI [47] | TGI [48] | TGI [49] | TGI [50] | TGI [51]
